Tested on: M17_3SYN cells
Assay: Paraquat-induced cytotoxicity (LDH) in α-synuclein over-expressing M17_3SYN neuroblastoma cells
Format: cell-based
Settings: Homo sapiens, Neuroblastoma cell, 48 h, 6 mM Paraquat, 2 days, LDH toxicity inhibition, read-out: SYN EC50
Excerpt: A α-synuclein expression plasmid was constructed by subcloning the NcoI/XhoI fragment from 212T-SYN(WT) (Griffioen et al., Biochem Biophys Acta (2006) 1762(3):312-318) containing the cDNA of human wild type α-synuclein correspondingly into a standard mammalian expression vector pcDNA3.1 resulting in plasmid pcDNA3.1-SYNwt. Plasmids pcDNA3.1 and pcDNA3.1-SYNwt were transfected into human neuroblastoma cells (BE-M17; ATCC No. CRL-2267™) using lipofectamine reagent and subsequently, independent clonal cell lines with the plasmids stably integrated into the genome were selected by antibiotic resistance selection (Geneticin (G418)), resulting in cell lines M17.pcDNA3 and M17_3SYN. Overexpression of α-synuclein in the M17_3SYN cell line was confirmed by Western blot analysis.
Due to the high levels of α-synuclein, M17_3SYN cells were sensitive to paraquat, a well-known risk factor Parkinson's disease and of synuclein-dependent neuronal degeneration. Cytotoxicity of cells was measured by quantification of lactate dehydrogenase (LDH) levels. In dead cells, LDH leaked out of the cells into the medium due to a loss of plasma-membrane integrity.
Three days preceding the experiment, primary pre-cultures of M17.pcDNA3 (as possible control) and M17_3SYN cells were prepared, starting from a stock culture, at a density of 20.000-40.000 cells/cm2 in culture medium (Opti-MEM® Reduced Serum Medium with Phenol Red (Invitrogen, Cat. 31985-047) supplemented with 10% FCS, 1 mM sodium pyruvate, 1×NEAA, 500 μg/ml G418 and 0.5× antibiotic/antimycotic (ABAM)). 3 days later these primary pre-cultures were used as a starting point to make secondary pre-cultures at a density of 50.000-100.000 cells/cm^2. At the day of the experiment these secondary precultures were diluted to ˜0.5·10^6 cells/ml in detection medium (Opti-MEM® Reduced-Serum Medium without Phenol Red (Invitrogen, Cat. 11085-021) supplemented with 10% FCS, 1 mM sodium pyruvate, 1×NEAA, 500 μg/ml G418 and 0.5×ABAM) and 60 μL of this suspension was dispensed per well into a 96-well microtiter plate. After 3 hours of incubation at 37° C./5% CO2 an equal volume of detection medium containing a final concentration of 6 mM Paraquat was added and subsequently incubated for 2 days at 37° C./5% CO2. Then LDH activity was determined using the Promega Cytotox 96 Non-Radioactive cytotoxicity assay (Promega, Cat. G1780), according to the manufacturer's instructions. Cytotoxicity was defined as the ratio of LDH relative to the total LDH in the cells and supernatant.
The assay described above using the M17_3SYN cell line allowed screening compounds for their ability to decrease cytotoxicity in PQ-challenged cells. Compounds of the invention were tested for their ability to decrease toxicity at different concentrations, ranging from low non-effective concentrations to high effective concentrations. Afterwards, a dose-dependent inhibition curve was used to calculate the EC50. A compound was considered to be active in this test when it inhibited toxicity by more than 20% relative to untreated M17_3SYN cells at a concentration of […] or lower.

COc1ccccc1S(=O)(=O)N1CCC2(CC1)CN(c1nc(Cc3ccc(F)cc3)ns1)C2 [Cmpd080, 3-(4-Fluorobenzyl)-5-(7-((2-methoxyphenyl)sulfonyl)-2,7-diazaspiro[3.5]nonan-2-yl)-1,2,4-thiadiazole]
EC50: 501 nM

COc1ccc(S(=O)(=O)N2CCC3(CC2)CN(c2nc(Cc4ccc(F)cc4)ns2)C3)cc1 [Cmpd057, 3-(4-Fluorobenzyl)-5-(7-((4-methoxyphenyl)sulfonyl)-2,7-diazaspiro[3.5]nonan-2-yl)-1,2,4-thiadiazole]
EC50: 1.9 nM

COc1ccc(OC)c(S(=O)(=O)N2CCC3(CC2)CN(c2nc(Cc4ccc(F)cc4)ns2)C3)c1 [Cmpd072, 5-(7-((2,5-Dimethoxyphenyl)sulfonyl)-2,7-diazaspiro[3.5]nonan-2-yl)-3-(4-fluorobenzyl)-1,2,4-thiadiazole]
EC50: 212 nM

Cc1ccc(S(=O)(=O)N2CCC3(CC2)CN(c2nc(Cc4ccc(F)cc4)ns2)C3)s1 [Cmpd095, 3-(4-Fluorobenzyl)-5-(7-((5-methylthiophen-2-yl)sulfonyl)-2,7-diazaspiro[3.5]nonan-2-yl)-1,2,4-thiadiazole]
EC50: 377 nM

COC(=O)c1cccc(S(=O)(=O)N2CCC3(CC2)CN(c2nc(Cc4ccc(F)cc4)ns2)C3)c1 [Cmpd084, Methyl 3-((2-(3-(4-fluorobenzyl)-1,2,4-thiadiazol-5-yl)-2,7-diazaspiro[3.5]nonan-7-yl)sulfonyl)benzoate]
EC50: 383 nM

Cc1ccccc1S(=O)(=O)N1CCC2(CC1)CN(c1nc(Cc3ccc(F)cc3)ns1)C2 [Cmpd069, 3-(4-Fluorobenzyl)-5-(7-(o-tolylsulfonyl)-2,7-diazaspiro[3.5]nonan-2-yl)-1,2,4-thiadiazole]
EC50: 182 nM

O=S(=O)(c1cc(F)cc(F)c1)N1CCC2(CC1)CN(c1nc(Cc3ccc(F)cc3)ns1)C2 [Cmpd083, 5-(7-((3,5-Difluorophenyl)sulfonyl)-2,7-diazaspiro[3.5]nonan-2-yl)-3-(4-fluorobenzyl)-1,2,4-thiadiazole]
EC50: 375 nM

Cn1cc(S(=O)(=O)N2CCC3(CC2)CN(c2nc(Cc4ccc(F)cc4)ns2)C3)cn1 [Cmpd090, 3-(4-Fluorobenzyl)-5-(7-((1-methyl-1H-pyrazol-4-yl)sulfonyl)-2,7-diazaspiro[3.5]nonan-2-yl)-1,2,4-thiadiazole]
EC50: 285 nM

COc1ccc(F)cc1S(=O)(=O)N1CCC2(CC1)CN(c1nc(Cc3ccc(F)cc3)ns1)C2 [Cmpd086, 5-(7-((5-Fluoro-2-methoxyphenyl)sulfonyl)-2,7-diazaspiro[3.5]nonan-2-yl)-3-(4-fluorobenzyl)-1,2,4-thiadiazole]
EC50: 300 nM

COc1cccc(S(=O)(=O)N2CCC3(CC2)CN(c2nc(Cc4ccc(F)cc4)ns2)C3)c1 [Cmpd076, 3-(4-Fluorobenzyl)-5-(7-((3-methoxyphenyl)sulfonyl)-2,7-diazaspiro[3.5]nonan-2-yl)-1,2,4-thiadiazole]
EC50: 394 nM

CCCCc1nsc(N2CC3(CCN(S(=O)(=O)c4ccc(OC)cc4)CC3)C2)n1 [Cmpd035, 3-Butyl-5-(7-((4-methoxyphenyl)sulfonyl)-2,7-diazaspiro[3.5]nonan-2-yl)-1,2,4-thiadiazole]
EC50: 326 nM

COc1ccc(S(=O)(=O)N2CCC3(CC2)CN(c2nc(Cc4ccc(F)c(F)c4)ns2)C3)cc1 [Cmpd033, 3-(3,4-Difluorobenzyl)-5-(7-((4-methoxyphenyl)sulfonyl)-2,7-diazaspiro[3.5]nonan-2-yl)-1,2,4-thiadiazole]
EC50: 332 nM

CSc1ccc(S(=O)(=O)N2CCC3(CC2)CN(c2nc(Cc4ccc(F)cc4)ns2)C3)cc1 [Cmpd041, 3-(4-Fluorobenzyl)-5-(7-((4-(methylthio)phenyl)sulfonyl)-2,7-diazaspiro[3.5]nonan-2-yl)-1,2,4-thiadiazole]
EC50: 177 nM

O=S(=O)(c1ccc(OC(F)F)cc1)N1CCC2(CC1)CN(c1nc(Cc3ccc(F)cc3)ns1)C2 [Cmpd085, 5-(7-((4-(Difluoromethoxy)phenyl)sulfonyl)-2,7-diazaspiro[3.5]nonan-2-yl)-3-(4-fluorobenzyl)-1,2,4-thiadiazole]
EC50: 541 nM

O=S(=O)(c1c(F)cccc1F)N1CCC2(CC1)CN(c1nc(Cc3ccc(F)cc3)ns1)C2 [Cmpd074, 5-(7-((2,6-Difluorophenyl)sulfonyl)-2,7-diazaspiro[3.5]nonan-2-yl)-3-(4-fluorobenzyl)-1,2,4-thiadiazole]
EC50: 260 nM

O=S(=O)(c1ccc(OC(F)F)cc1)N1CCC2(CC1)CN(c1nc3ccc(Cl)cc3s1)C2 [Cmpd054, 6-Chloro-2-(7-((4-(difluoromethoxy)phenyl)sulfonyl)-2,7-diazaspiro[3.5]nonan-2-yl)benzo[d]thiazole]
EC50: 406 nM

COc1ccc(S(=O)(=O)N2CCC3(CC2)CN(c2nc(Cc4ccc(Cl)cc4)ns2)C3)cc1 [Cmpd032, 3-(4-Chlorobenzyl)-5-(7-((4-methoxyphenyl)sulfonyl)-2,7-diazaspiro[3.5]nonan-2-yl)-1,2,4-thiadiazole]
EC50: 170 nM

O=S(=O)(c1cccc(C(F)(F)F)c1)N1CCC2(CC1)CN(c1nc(Cc3ccc(F)cc3)ns1)C2 [Cmpd064, 3-(4-Fluorobenzyl)-5-(7-((3-(trifluoromethyl)phenyl)sulfonyl)-2,7-diazaspiro[3.5]nonan-2-yl)-1,2,4-thiadiazole]
EC50: 1070 nM

Cc1cccc(S(=O)(=O)N2CCC3(CC2)CN(c2nc(Cc4ccc(F)cc4)ns2)C3)c1 [Cmpd066, 3-(4-Fluorobenzyl)-5-(7-(m-tolylsulfonyl)-2,7-diazaspiro[3.5]nonan-2-yl)-1,2,4-thiadiazole]
EC50: 399 nM

COc1ccc(S(=O)(=O)N2CCC3(CC2)CN(c2nc4ccc(Cl)cc4s2)C3)cc1 [Cmpd052, 6-Chloro-2-(7-((4-methoxyphenyl)sulfonyl)-2,7-diazaspiro[3.5]nonan-2-yl)benzo[d]thiazole]
EC50: 463 nM

O=S(=O)(CC1CCCCC1)N1CCC2(CC1)CN(c1nc(Cc3ccc(F)cc3)ns1)C2 [Cmpd097, 5-(7-((Cyclohexylmethyl)sulfonyl)-2,7-diazaspiro[3.5]nonan-2-yl)-3-(4-fluorobenzyl)-1,2,4-thiadiazole]
EC50: 190 nM

O=S(=O)(N1CCOCC1)N1CCC2(CC1)CN(c1nc(Cc3ccc(F)cc3)ns1)C2 [Cmpd098, 4-((2-(3-(4-Fluorobenzyl)-1,2,4-thiadiazol-5-yl)-2,7-diazaspiro[3.5]nonan-7-yl)sulfonyl)morpholine]
EC50: 1190 nM

COc1ccc(S(=O)(=O)N2CCC3(CC2)CN(c2nc(Cc4cccc(C(F)(F)F)c4)ns2)C3)cc1 [Cmpd036, 5-(7-((4-Methoxyphenyl)sulfonyl)-2,7-diazaspiro[3.5]nonan-2-yl)-3-(3-(trifluoromethyl)benzyl)-1,2,4-thiadiazole]
EC50: 499 nM

O=S(=O)(c1cccc(F)c1)N1CCC2(CC1)CN(c1nc(Cc3ccc(F)cc3)ns1)C2 [Cmpd071, 3-(4-Fluorobenzyl)-5-(7-((3-fluorophenyl)sulfonyl)-2,7-diazaspiro[3.5]nonan-2-yl)-1,2,4-thiadiazole]
EC50: 441 nM

O=S(=O)(c1cc(F)ccc1F)N1CCC2(CC1)CN(c1nc(Cc3ccc(F)cc3)ns1)C2 [Cmpd073, 5-(7-((2,5-Difluorophenyl)sulfonyl)-2,7-diazaspiro[3.5]nonan-2-yl)-3-(4-fluorobenzyl)-1,2,4-thiadiazole]
EC50: 217 nM

COc1ccc(S(=O)(=O)N2CCC3(CC2)CN(S(=O)(=O)c2ccc(F)cc2)C3)cc1 [Cmpd002, 2-((4-Fluorophenyl)sulfonyl)-7-((4-methoxyphenyl)sulfonyl)-2,7-diazaspiro[3.5]nonane]
EC50: 25.8 nM

COc1ccc(S(=O)(=O)N2CCC3(CC2)CN(c2nc(Cc4ccc(F)cc4)ns2)C3)cc1OC [Cmpd061, 5-(7-((3,4-Dimethoxyphenyl)sulfonyl)-2,7-diazaspiro[3.5]nonan-2-yl)-3-(4-fluorobenzyl)-1,2,4-thiadiazole]
EC50: 320 nM

Cc1ccc(F)cc1S(=O)(=O)N1CCC2(CC1)CN(c1nc(Cc3ccc(F)cc3)ns1)C2 [Cmpd077, 5-(7-((5-Fluoro-2-methylphenyl)sulfonyl)-2,7-diazaspiro[3.5]nonan-2-yl)-3-(4-fluorobenzyl)-1,2,4-thiadiazole]
EC50: 235 nM
